# Laboratory results from patent US11161830B2, “4-pyridone compound or salt thereof, and pharmaceutical composition and formulation including same” (priority 2017, dated 2021).
# Where “and” joins values, the source holds several entries; their conditions need not be identical. Equal entries are not always repeated. Where two headings read alike, the source gives them in different places.
# What was measured:
# HBV genotype C = assay: Test Example 3-2: in vivo efficacy study in PXB mouse (chimeric mouse with human hepatocytes), first and second study; parameters: species or system hepatitis B virus; details: first study, individual mice
# Experimental: An in vivo efficacy study with a PXB mouse (a chimeric mouse with human hepatocytes) was carried out in PhenixBio Co., Ltd. 19-Week-or-more-old male mice having body weights of 10.5 g or more after the elapse of 13 weeks or more from the infection with HBV genotype C were allocated into the respective groups and used. The studies were carried out twice, and a 21-day administration withdrawal period was provided between the first study and the second study.
# The first administration day in the first study was taken as day 0, and the compound of Example 6-5 was orally administered at 1 mg/kg, 3 mg/kg, 10 mg/kg, and 30 mg/kg twice a day, or 0.5% methylcellulose (vehicle) was orally administered once a day for 14 days. Before administration on day 0, day 3, Day 7, and day 10, and on day 14, the blood was collected from the orbital venous plexus under anesthesia with isoflurane.
# The first administration day in the second study was taken as day 35, and the compounds of Examples 19-2 and 20-2 were each orally administered at 3 mg/kg twice a day, or 0.5% methylcellulose (vehicle) was orally administered once a day for 14 days. Before administration on day 35, day 38, day 42, and day 45, the blood was collected from the orbital venous plexus under anesthesia with isoflurane. On day 49, the blood was collected from the heart under anesthesia with isoflurane.
# The serum was separated from the collected blood and purified with a QIAamp (registered trademark) DNA Blood Mini Kit (manufactured by QIAGEN). The amount of HBV-DNA in the obtained solution was absolutely quantified by a real-time PCR method. In addition, the amount of HBsAg in the serum was absolutely quantified by chemiluminescent enzyme immunoassay using Lumipulse (registered trademark) HBsAg-HQ (manufactured by Fujirebio Inc.).
# HBV = assay: Test Example 1-1: anti-HBV assay in HepG2.2.15 cells (test solution 200 μL/well); assay type: cell-based, hepatitis B virus; details: Hepatitis B virus, culture supernatant
# Outline: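 HepG2.2.15 cells (HBV genome, persistent virus production) pre-cultured 2 days, then treated with compound in 0.25% DMSO medium for 4 days, refreshed for 3 more days at 37 °C. Supernatant HBV-DNA measured by real-time PCR and HBsAg by chemiluminescent immunoassay. IC50 = 50% reduction versus DMSO control, linear regression on log concentration.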
# [1] = orally 1 mg/kg twice a day, Day 0 (before administration), 1 mg/kg
# [2] = orally 1 mg/kg twice a day, Day 3, 1 mg/kg
# [3] = orally 1 mg/kg twice a day, Day 7, 1 mg/kg
# [4] = orally 1 mg/kg twice a day, Day 14, 1 mg/kg
# [5] = orally 3 mg/kg twice a day, Day 0 (before administration), 3 mg/kg
# [6] = orally 3 mg/kg twice a day, Day 3, 3 mg/kg
# [7] = orally 3 mg/kg twice a day, Day 7, 3 mg/kg
# [8] = orally 3 mg/kg twice a day, Day 10, 3 mg/kg
# [9] = orally 3 mg/kg twice a day, Day 14, 3 mg/kg
# [10] = orally 10 mg/kg twice a day, Day 0 (before administration), 10 mg/kg
# [11] = orally 10 mg/kg twice a day, Day 3, 10 mg/kg
# [12] = orally 10 mg/kg twice a day, Day 7, 10 mg/kg
# [13] = orally 10 mg/kg twice a day, Day 10, 10 mg/kg
# [14] = orally 10 mg/kg twice a day, Day 14, 10 mg/kg
# [15] = orally 30 mg/kg twice a day, Day 0 (before administration), 30 mg/kg
# [16] = orally 30 mg/kg twice a day, Day 3, 30 mg/kg
# [17] = orally 30 mg/kg twice a day, Day 7, 30 mg/kg
# [18] = orally 30 mg/kg twice a day, Day 10, 30 mg/kg
# [19] = orally 30 mg/kg twice a day, Day 14, 30 mg/kg
smiles,measurement,setting,value
"COCCN1CCN(c2nc3ccc(-n4cc(C(=O)O)c(=O)cc4-c4ccc(N5CCCC5)c(Cl)c4)cc3s2)CC1 [Example 6-5, 6-(3-chloro-4-(pyrrolidin-1-yl)phenyl)-1-(2-(4-(2-methoxyethyl)piperazine-1-yl)benzo[d]thiazol-6-yl)-4-oxo-1,4-dihydropyridine-3-carboxylic acid]",HBV-DNA in blood,HBV genotype C; [1],8.4E+08 copies/mL and 1.1E+09 copies/mL
same,HBsAg in serum,HBV genotype C; [1],"1,910 IU/mL and 2,498 IU/mL"
same,HBV-DNA in blood,HBV genotype C; [2],1.6E+09 copies/mL and 7.7E+08 copies/mL
same,HBsAg in serum,HBV genotype C; [2],"2,288 IU/mL and 2,694 IU/mL"
same,HBV-DNA in blood,HBV genotype C; [3],1.4E+09 copies/mL and 1.1E+09 copies/mL
same,HBsAg in serum,HBV genotype C; [3],"2,444 IU/mL and 2,663 IU/mL"
same,HBV-DNA in blood,"HBV genotype C; orally 1 mg/kg twice a day, Day 10",1.2E+09 copies/mL
same,HBsAg in serum,"HBV genotype C; orally 1 mg/kg twice a day, Day 10, 1 mg/kg","1,947 IU/mL and 2,431 IU/mL"
same,HBV-DNA in blood,HBV genotype C; [4],6.8E+08 copies/mL and 6.4E+08 copies/mL
same,HBsAg in serum,HBV genotype C; [4],"1,777 IU/mL and 2,344 IU/mL"
same,HBV-DNA in blood,HBV genotype C; [5],1.8E+09 copies/mL and 9.8E+08 copies/mL
same,HBsAg in serum,HBV genotype C; [5],"2,722 IU/mL and 2,314 IU/mL"
same,HBV-DNA in blood,HBV genotype C; [6],5.7E+08 copies/mL and 5.6E+08 copies/mL
same,HBsAg in serum,HBV genotype C; [6],"972 IU/mL and 1,059 IU/mL"
same,HBV-DNA in blood,HBV genotype C; [7],4.9E+08 copies/mL and 4.0E+08 copies/mL
same,HBsAg in serum,HBV genotype C; [7],859 IU/mL and 876 IU/mL
same,HBV-DNA in blood,HBV genotype C; [8],5.7E+08 copies/mL and 6.2E+08 copies/mL
same,HBsAg in serum,HBV genotype C; [8],"959 IU/mL and 1,025 IU/mL"
same,HBV-DNA in blood,HBV genotype C; [9],6.1E+08 copies/mL and 5.2E+08 copies/mL
same,HBsAg in serum,HBV genotype C; [9],"1,012 IU/mL and 837 IU/mL"
same,HBV-DNA in blood,HBV genotype C; [10],1.1E+09 copies/mL and 1.2E+09 copies/mL
same,HBsAg in serum,HBV genotype C; [10],"2,500 IU/mL and 2,409 IU/mL"
same,HBV-DNA in blood,HBV genotype C; [11],8.0E+08 copies/mL and 4.5E+08 copies/mL
same,HBsAg in serum,HBV genotype C; [11],595 IU/mL and 421 IU/mL
same,HBV-DNA in blood,HBV genotype C; [12],3.3E+08 copies/mL and 4.0E+08 copies/mL
same,HBsAg in serum,HBV genotype C; [12],445 IU/mL and 366 IU/mL
same,HBV-DNA in blood,HBV genotype C; [13],7.3E+08 copies/mL and 3.9E+08 copies/mL
same,HBsAg in serum,HBV genotype C; [13],394 IU/mL and 329 IU/mL
same,HBV-DNA in blood,HBV genotype C; [14],4.9E+08 copies/mL and 3.6E+08 copies/mL
same,HBsAg in serum,HBV genotype C; [14],368 IU/mL and 398 IU/mL
same,HBV-DNA in blood,HBV genotype C; [15],1.6E+09 copies/mL and 1.2E+09 copies/mL
same,HBsAg in serum,HBV genotype C; [15],"2,291 IU/mL and 2,328 IU/mL"
same,HBV-DNA in blood,HBV genotype C; [16],8.3E+08 copies/mL and 4.4E+08 copies/mL
same,HBsAg in serum,HBV genotype C; [16],673 IU/mL and 592 IU/mL
same,HBV-DNA in blood,HBV genotype C; [17],7.5E+08 copies/mL and 3.7E+08 copies/mL
same,HBsAg in serum,HBV genotype C; [17],458 IU/mL and 370 IU/mL
same,HBV-DNA in blood,HBV genotype C; [18],8.0E+08 copies/mL and 4.9E+08 copies/mL
same,HBsAg in serum,HBV genotype C; [18],359 IU/mL and 392 IU/mL
same,HBV-DNA in blood,HBV genotype C; [19],6.1E+08 copies/mL and 2.6E+08 copies/mL
same,HBsAg in serum,HBV genotype C; [19],408 IU/mL and 268 IU/mL
"COC[C@H]1CCCN1c1nc2ccc(-n3cc(C(=O)O)c(=O)cc3-c3ccc(N4CC[C@@H](OC)C4)cc3)cc2s1 [Example 10-2, 1-(2-((R)-2-(methoxymethyl)pyrrolidin-1-yl)benzo[d]thiazol-6-yl)-6-(4-((R)-3-methoxypyrrolidin-1-yl)phenyl)-4-oxo-1,4-dihydropyridine-3-carboxylic acid]",IC50,HBV; read-out: IC50 HBV-DNA,5.2 nM
same,IC50,HBV; read-out: IC50 HBsAg,2.7 nM
